# Laboratory results reported in BindingDB's records for doi:10.1021/jm00029a001 (Bristol-Myers Squibb Pharmaceutical Research Institute, 1994).
# Target: not listed separately
# Test: Selectivity for the ET-A receptor over ETB receptor was observed in rat cerebellar membranes
row,Ki [µM],Compound
1,> 200,Cc1noc(NS(=O)(=O)c2cccc3c(N(C)C)cccc23)c1C [BMS-182874]

# Target: Endothelin-1 receptor (Rattus norvegicus) (UniProt P26684)
# Test: Ability to inhibit [125I]ET1 binding to vascular smooth muscle (vsm)- A10 cells
# Endothelin-1 receptor (Rattus norvegicus), sequence (P26684 whole entry, looked up): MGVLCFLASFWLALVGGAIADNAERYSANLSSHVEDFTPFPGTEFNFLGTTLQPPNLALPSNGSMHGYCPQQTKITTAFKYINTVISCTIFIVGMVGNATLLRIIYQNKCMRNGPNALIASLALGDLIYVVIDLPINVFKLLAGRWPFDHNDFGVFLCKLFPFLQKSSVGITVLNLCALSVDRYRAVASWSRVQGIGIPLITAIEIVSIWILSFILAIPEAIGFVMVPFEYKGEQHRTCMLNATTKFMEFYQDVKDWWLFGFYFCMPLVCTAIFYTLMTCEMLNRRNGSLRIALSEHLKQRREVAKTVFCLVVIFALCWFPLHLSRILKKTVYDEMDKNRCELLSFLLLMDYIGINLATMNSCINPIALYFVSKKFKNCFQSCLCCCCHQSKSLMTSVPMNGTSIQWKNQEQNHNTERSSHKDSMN
row,Compound,IC50 [µM]
1,Cc1cc(NS(=O)(=O)c2ccc(N)cc2)on1 [4-Amino-N-(3-methyl-isoxazol-5-yl)-benzenesulfonamide],28
2,"Cc1noc(NS(=O)(=O)c2ccc(C#N)cc2)c1C [4-Cyano-N-(3,4-dimethyl-isoxazol-5-yl)-benzenesulfonamide]",> 32
3,"Cc1noc(NS(=O)(=O)c2ccc(N(C)C)cc2)c1C [4-Dimethylamino-N-(3,4-dimethyl-isoxazol-5-yl)-benzenesulfonamide]",84

# The remaining lines, values ahead:
row,IC50 [µM],Compound
1,27,"CCCNc1ccc(S(=O)(=O)Nc2onc(C)c2C)cc1 [N-(3,4-Dimethyl-isoxazol-5-yl)-4-propylamino-benzenesulfonamide]"
2,9.8,"Cc1noc(NS(=O)(=O)c2ccc(NCc3ccccc3)cc2)c1C [4-Benzylamino-N-(3,4-dimethyl-isoxazol-5-yl)-benzenesulfonamide]"
3,2.8,"Cc1noc(NS(=O)(=O)c2cccc3c(CN(C)C)cccc23)c1C [5-Dimethylaminomethyl-naphthalene-1-sulfonic acid (3,4-dimethyl-isoxazol-5-yl)-amide]"
